Measurements from patent publication US10233161B2, “Pharmaceutical compositions and salts of a 1,2,4-oxadiazole benzoic acid” (PTC Therapeutics, Inc., priority 2014, dated 2019).

Key:
[1] = Comparative equilibrium solubility study of micronized and non-micronized Compound 1; assay type: physicochemical; conditions: for Concentration of Compound 1 in 0.1N HCl + 0.5% SLS: pH 1; for Concentration of Compound 1 in PBS: pH 7.4
Experimental: Objective: The purpose of this study was to evaluate the solubility of micronized and non-micronized Compound 1. The solubility study was conducted in two representative media in pH 1 (0.1 N HCl with 0.5% sodium lauryl sulfate) and in pH 7.4 (0.1M phosphate buffered saline). The experiment further compared the initial rate of dissolution and equilibrium solubilities of micronized and non-micronized Compound 1 over a period of time.
Solubility measurement procedure comprised the steps of: 1) weighing and mixing approximately 100 mg of micronized Compound 1 and 100 mL of 0.1N HCl with 0.5% SLS into amber jar 1; 2) weighing and mixing approximately 100 mg of micronized Compound 1 and 100 mL of PBS into amber jar 2; 3) weighing and mixing approximately 100 mg of non-micronized Compound 1 and 100 mL of 0.1N HCl with 0.5% SLS into amber jar 3; 4) weighing and mixing approximately 100 mg of non-micronized Compound 1 and 100 mL of PBS into amber jar 4; 5) mixing all samples in their respective amber jars using a multi purpose rotator for 2 hours; 4) sampling at 5 minutes, 10 minutes, 30 minutes, 60 minutes, 90 minutes, 120 minutes; 5) filtering the samples and 6) analyzing the filtrates using HPLC. For each time point, 10 mL of sample was drawn using a 10 mL syringe with a needle attached filter and using a syringe-top 0.45 μm PTFE syringe filter. The first 9 mL of the samples collected were put back into the original amber jar and then remaining 1 mL was transferred to HPLC vial for analysis.

[2] = Quantitative whole body autoradiography, Sprague Dawley rats; assay type: in vivo; conditions: 1 hr, 50 mg/kg single oral
Experimental: (§1) Two studies were performed to evaluate the concentrations of Compound 1/metabolites in various tissues, including the eyes, following a single dose administration of radiolabeled Compound 1 (^14C-3-[5-(2-fluoro-phenyl)-[1,2,4]oxadiazol-3-yl]benzoic acid) to Sprague Dawley and Long Evans rats.
Sprague Dawley rats: As part of a quantitative whole body autoradiography (QWBA) study, 4 male and 4 female Sprague Dawley rats (albino) obtained from Charles River were administered a single oral gavage dose of 50 mg/kg ^14C-3-[5-(2-fluoro-phenyl)-[1,2,4]oxadiazol-3-yl]benzoic acid.
Animals were individually housed and certified rodent diet and water were provided ad libitum. Animals were acclimated for 8 days prior to dose administration. Environmental controls for the animal room were set to maintain a temperature of 18 to 26° C., a relative humidity of 50±20%, and a 12-hour light/12-hour dark cycle. The 12-hour dark cycle may have been interrupted to accommodate study procedures. Animals were fasted overnight through 4 hours postdose on the day of dosing. At dosing, the animals weighed 204 to 260 g and were approximately 9 to 11 weeks of age. […] The concentrations of ^14C-3-[5-(2-fluoro-phenyl)-[1,2,4]oxadiazol-3-yl]benzoic acid in the eye and related tissues are shown in the following table.

[3] = Quantitative whole body autoradiography, Long Evans rats; assay type: in vivo; conditions: 50 mg/kg single oral
Experimental: as §1
Long Evans rats: In a quantitative whole body autoradiography (QWBA) study, 8 male Long Evans rats (partially pigmented) obtained from Harlan were administered a single oral gavage dose of 50 mg/kg ^14C-Compound 1.
Animals were individually housed and certified rodent diet and water were provided ad libitum. Animals were acclimated for 3 days prior to dose administration. Environmental controls for the animal room were set to maintain a temperature of 18 to 26° C., a relative humidity of 50±20%, and a 12-hour light/12-hour dark cycle. As necessary, the 12-hour dark cycle was interrupted to accommodate study procedures. Animals were fasted overnight through 4 hours postdose on the day of dosing. At dosing, the animals weighed 160 to 178 g and were approximately 7 weeks of age. One animal/time point was sacrificed via exsanguination (cardiac puncture) under isoflurane anesthesia at 0.5, 1, 2, 4, 8, 24, 72, and 168 hours postdose.

## O=C(O)c1cccc(-c2noc(-c3ccccc3F)n2)c1 [Micronized Compound 1]
[1]; 5 minutes
  Concentration of Compound 1 in 0.1N HCl + 0.5% SLS: 6.85 µg/mL
  Concentration of Compound 1 in PBS: 189.13 µg/mL
[1]; 10 minutes
  Concentration of Compound 1 in 0.1N HCl + 0.5% SLS: 6.81 µg/mL
  Concentration of Compound 1 in PBS: 191.45 µg/mL
[1]; 30 minutes
  Concentration of Compound 1 in 0.1N HCl + 0.5% SLS: 6.83 µg/mL
  Concentration of Compound 1 in PBS: 197.59 µg/mL
[1]; 60 minutes
  Concentration of Compound 1 in 0.1N HCl + 0.5% SLS: 7.04 µg/mL
  Concentration of Compound 1 in PBS: 199.95 µg/mL
[1]; 90 minutes
  Concentration of Compound 1 in 0.1N HCl + 0.5% SLS: 6.88 µg/mL
  Concentration of Compound 1 in PBS: 200.29 µg/mL
[1]; 120 minutes
  Concentration of Compound 1 in 0.1N HCl + 0.5% SLS: 7.18 µg/mL
  Concentration of Compound 1 in PBS: 203.08 µg/mL

## O=C(O)c1cccc(-c2noc(-c3ccccc3F)n2)c1 [Non-Micronized Compound 1]
[1]; 5 minutes
  Concentration of Compound 1 in 0.1N HCl + 0.5% SLS: 6.24 µg/mL
  Concentration of Compound 1 in PBS: 141.89 µg/mL
[1]; 10 minutes
  Concentration of Compound 1 in 0.1N HCl + 0.5% SLS: 6.38 µg/mL
  Concentration of Compound 1 in PBS: 152.59 µg/mL
[1]; 30 minutes
  Concentration of Compound 1 in 0.1N HCl + 0.5% SLS: 6.87 µg/mL
  Concentration of Compound 1 in PBS: 176.92 µg/mL
[1]; 60 minutes
  Concentration of Compound 1 in 0.1N HCl + 0.5% SLS: 6.99 µg/mL
  Concentration of Compound 1 in PBS: 185.18 µg/mL
[1]; 90 minutes
  Concentration of Compound 1 in 0.1N HCl + 0.5% SLS: 6.97 µg/mL
  Concentration of Compound 1 in PBS: 194.06 µg/mL
[1]; 120 minutes
  Concentration of Compound 1 in 0.1N HCl + 0.5% SLS: 7.04 µg/mL
  Concentration of Compound 1 in PBS: 196.54 µg/mL

## ^14C-3-[5-(2-fluoro-phenyl)-[1,2,4]oxadiazol-3-yl]benzoic acid
[2]; Female, Exorbital lacrimal gland
  Concentrations of radioactivity: 10.3 µg/g
[2]; Female, Harderian gland
  Concentrations of radioactivity: 18.7 µg/g
[2]; Female, Intra-orbital lacrimal gland
  Concentrations of radioactivity: 10.2 µg/g
[2]; Female, matrix cell blank (first line)
  Concentrations of radioactivity: 1.41 µg/g
[2]; Male, Exorbital lacrimal gland
  Concentrations of radioactivity: 21.1 µg/g
[2]; Male, Eye
  Concentrations of radioactivity: 3.39 µg/g
[2]; Male, Harderian gland
  Concentrations of radioactivity: 21.6 µg/g
[2]; Male, Intra-orbital lacrimal gland
  Concentrations of radioactivity: 21.8 µg/g
[3]; Exorbital lacrimal gland, 0.5 hr
  Concentrations of radioactivity: 28.0 µg/g
[3]; Exorbital lacrimal gland, 1 hr
  Concentrations of radioactivity: 7.59 µg/g
[3]; Exorbital lacrimal gland, 2 hr
  Concentrations of radioactivity: 22.4 µg/g
[3]; Exorbital lacrimal gland, 4 hr
  Concentrations of radioactivity: 10.2 µg/g
[3]; Exorbital lacrimal gland, 8 hr
  Concentrations of radioactivity: 8.09 µg/g
[3]; Exorbital lacrimal gland, 24 hr
  Concentrations of radioactivity: BLQ (BLQ = below the limit of quantitation (<0.457 μg equivalents ^14C-3-[5-(2-fluoro-phenyl)-[1,2,4]oxadiazol-3-yl]benzoic acid))
[3]; Exorbital lacrimal gland, 72 hr
  Concentrations of radioactivity: BLQ (BLQ = below the limit of quantitation (<0.457 μg equivalents ^14C-3-[5-(2-fluoro-phenyl)-[1,2,4]oxadiazol-3-yl]benzoic acid))
[3]; Eye (lens), 0.5 hr
  Concentrations of radioactivity: BLQ (BLQ = below the limit of quantitation (<0.457 μg equivalents ^14C-3-[5-(2-fluoro-phenyl)-[1,2,4]oxadiazol-3-yl]benzoic acid))
[3]; Eye (lens), 1 hr
  Concentrations of radioactivity: BLQ (BLQ = below the limit of quantitation (<0.457 μg equivalents ^14C-3-[5-(2-fluoro-phenyl)-[1,2,4]oxadiazol-3-yl]benzoic acid))
[3]; Eye (lens), 2 hr
  Concentrations of radioactivity: BLQ (BLQ = below the limit of quantitation (<0.457 μg equivalents ^14C-3-[5-(2-fluoro-phenyl)-[1,2,4]oxadiazol-3-yl]benzoic acid))
[3]; Eye (lens), 4 hr
  Concentrations of radioactivity: BLQ (BLQ = below the limit of quantitation (<0.457 μg equivalents ^14C-3-[5-(2-fluoro-phenyl)-[1,2,4]oxadiazol-3-yl]benzoic acid))
[3]; Eye (lens), 8 hr
  Concentrations of radioactivity: BLQ (BLQ = below the limit of quantitation (<0.457 μg equivalents ^14C-3-[5-(2-fluoro-phenyl)-[1,2,4]oxadiazol-3-yl]benzoic acid))
[3]; Eye (lens), 24 hr
  Concentrations of radioactivity: BLQ (BLQ = below the limit of quantitation (<0.457 μg equivalents ^14C-3-[5-(2-fluoro-phenyl)-[1,2,4]oxadiazol-3-yl]benzoic acid))
[3]; Eye, 0.5 hr
  Concentrations of radioactivity: 4.59 µg/g
[3]; Eye, 1 hr
  Concentrations of radioactivity: 1.78 µg/g
[3]; Eye, 2 hr
  Concentrations of radioactivity: 3.62 µg/g
[3]; Eye, 4 hr
  Concentrations of radioactivity: 2.69 µg/g
[3]; Eye, 8 hr
  Concentrations of radioactivity: 2.08 µg/g
[3]; Eye, 24 hr
  Concentrations of radioactivity: BLQ (BLQ = below the limit of quantitation (<0.457 μg equivalents ^14C-3-[5-(2-fluoro-phenyl)-[1,2,4]oxadiazol-3-yl]benzoic acid))
[3]; Hardenian gland, 0.5 hr
  Concentrations of radioactivity: 46.8 µg/g
[3]; Hardenian gland, 1 hr
  Concentrations of radioactivity: 16.0 µg/g
[3]; Hardenian gland, 2 hr
  Concentrations of radioactivity: 38.2 µg/g
[3]; Hardenian gland, 4 hr
  Concentrations of radioactivity: 18.1 µg/g
[3]; Hardenian gland, 8 hr
  Concentrations of radioactivity: 13.0 µg/g
[3]; Hardenian gland, 24 hr
  Concentrations of radioactivity: 1.59 µg/g
[3]; Intra-orbital lacrimal gland, 0.5 hr
  Concentrations of radioactivity: 28.8 µg/g
[3]; Intra-orbital lacrimal gland, 1 hr
  Concentrations of radioactivity: 10.3 µg/g
[3]; Intra-orbital lacrimal gland, 2 hr
  Concentrations of radioactivity: 25.2 µg/g
[3]; Intra-orbital lacrimal gland, 4 hr
  Concentrations of radioactivity: 11.7 µg/g
[3]; Intra-orbital lacrimal gland, 8 hr
  Concentrations of radioactivity: 10.3 µg/g
[3]; Intra-orbital lacrimal gland, 24 hr
  Concentrations of radioactivity: BLQ (BLQ = below the limit of quantitation (<0.457 μg equivalents ^14C-3-[5-(2-fluoro-phenyl)-[1,2,4]oxadiazol-3-yl]benzoic acid))
[3]; Uveal tract, 0.5 hr
  Concentrations of radioactivity: 20.6 µg/g
[3]; Uveal tract, 1 hr
  Concentrations of radioactivity: 10.4 µg/g
[3]; Uveal tract, 2 hr
  Concentrations of radioactivity: 18.1 µg/g
[3]; Uveal tract, 4 hr
  Concentrations of radioactivity: 6.09 µg/g
[3]; Uveal tract, 8 hr
  Concentrations of radioactivity: 11.6 µg/g
[3]; Uveal tract, 24 hr
  Concentrations of radioactivity: BLQ (BLQ = below the limit of quantitation (<0.457 μg equivalents ^14C-3-[5-(2-fluoro-phenyl)-[1,2,4]oxadiazol-3-yl]benzoic acid))
